We go through 9 compounds from ChEMBL document CHEMBL6127159, “A Bifunctional Sulfide Donor Approach for Ischemic Stroke: Leveraging Butylphthalide as a Carrier for Sulfide Prodrug” (J Med Chem, 2024).

The structures appear in SMILES notation. Active and inactive are the calls of the source. No cut-off for these calls is given here.

Data set [1] is described as follows: Downregulation of MDA level in MCAO induced C57BL/6J mouse at 100 umol/kg measured after 24 hrs (reference value: 15.1 +/- 0.5 nmol/mg). The data set is classed as functional. The conditions noted are these: dose 100 µmol/kg.
A further data set in a line: cells. The data set is classed as functional, PC12. The conditions noted are these: Homo sapiens, PC-12.
For data set [2], the system named is Mus musculus. The experiment in a line: Neuroprotective activity against MCAO induced C57BL/6J mouse assessed as reduction in infarct area at 100 umol/kg measured after 24 hrs by TTC staining based analysis. The data set is classed as functional. The arrangement: scale not given: the % may be the effect or the level left. The settings on record: dose 100 µmol/kg.

Data set [3] has as its target T1, Liver carboxylesterase (Sus scrofa, UniProt Q29550).
T1 sequence (Q29550 whole entry): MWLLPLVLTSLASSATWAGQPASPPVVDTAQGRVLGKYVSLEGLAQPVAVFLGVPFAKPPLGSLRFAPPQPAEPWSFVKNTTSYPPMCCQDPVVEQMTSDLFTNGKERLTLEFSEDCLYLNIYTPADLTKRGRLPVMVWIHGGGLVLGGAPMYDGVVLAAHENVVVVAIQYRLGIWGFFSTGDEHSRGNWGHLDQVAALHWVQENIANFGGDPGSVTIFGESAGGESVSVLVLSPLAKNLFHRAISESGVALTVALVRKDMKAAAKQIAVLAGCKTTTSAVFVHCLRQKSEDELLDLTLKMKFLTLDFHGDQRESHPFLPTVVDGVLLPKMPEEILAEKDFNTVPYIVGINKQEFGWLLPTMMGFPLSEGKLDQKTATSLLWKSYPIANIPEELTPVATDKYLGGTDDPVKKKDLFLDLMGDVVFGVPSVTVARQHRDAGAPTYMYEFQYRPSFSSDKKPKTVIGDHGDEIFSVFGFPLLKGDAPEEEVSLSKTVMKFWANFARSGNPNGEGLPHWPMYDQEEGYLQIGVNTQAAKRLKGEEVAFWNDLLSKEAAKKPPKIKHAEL
The experiment in a line: Drug metabolism in PBS assessed as porcine liver esterase mediated compound hydrolysis by measuring half life at 500 uM by UPLC method. The data set is classed as ADME. The conditions noted are these: pig.

The target of data set [4] is T1, Liver carboxylesterase. The experiment in a line: Drug metabolism in PBS assessed as porcine liver esterase mediated H2S release at 500 uM by methylene blue assay. The format is ADME. The settings on record: pig, isolated protein.
Data set [5] is described as follows: Cytotoxicity against […] PC12 cells upto 500 uM. The settings on record: pc12, 500 µM. The format is toxicity, cell-based.
A short description of data set [6]: Drug concentration in Sprague-Dawley rat plasma at 80 umol/kg, iv measured after 1 min by LC-MS/MS analysis. The settings on record: dose 80 µmol/kg. The data set is classed as ADME, organism-based.
Data set [7] in a line: Drug metabolism in Sprague-Dawley rat plasma assessed as 2-(1-acetoxypentyl)benzoic acid level at 80 umol/kg, iv measured after 1 min by LC-MS/MS analysis. The data set is classed as ADME, organism-based. The conditions noted are these: in vivo, dose 80 µmol/kg.
Data set [8] is described as follows: Drug metabolism in Sprague-Dawley rat plasma assessed as 3-butylisobenzofuran-1(3H)-thione level at 80 umol/kg, iv measured after 1 min by LC-MS/MS analysis. The format is ADME, organism-based. The settings on record: in vivo, dose 80 µmol/kg.
Data set [9] can be described thus: Drug metabolism in Sprague-Dawley rat assessed as Sodium 2-(1-acetoxypentyl)benzothioate level at 80 umol/kg, iv measured after 1 min by LC-MS/MS analysis. The conditions noted are these: in vivo, dose 80 µmol/kg. The data set is classed as ADME, organism-based.
For data set [10], the system named is Mus musculus. As to the kind of experiment: Induction of iron-sulfur cluster related genes transcriptional level in MCAO induced C57BL/6J mouse at 100 umol/kg measured after 24 hrs. The data set is classed as functional, organism-based. The settings on record: dose 100.0 µmol/kg.
A short description of data set [11]: Drug metabolism in Sprague-Dawley rat assessed as Sodium 2-(1-((3-methylbutanoyl)oxy)pentyl)benzothioate level at 80 umol/kg, iv measured after 1 min by LC-MS/MS analysis. The data set is classed as ADME, organism-based. The settings on record: in vivo, dose 80 µmol/kg.
Data set [12] in a line: Drug concentration in Sprague-Dawley rat at 80 umol/kg, iv measured after 1 min by LC-MS/MS analysis. The format is ADME, organism-based. The conditions noted are these: in vivo.
For data set [13], the species on record is Mus musculus. The experiment in a line: Neuroprotective activity against MCAO induced C57BL/6J mouse cerebral ischemia model assessed as upregulation of genes related to dopaminergic neuron differentiation by GSEA. The data set is classed as functional, organism-based.
For data set [14], the species on record is Mus musculus. As to the kind of experiment: Neuroprotective activity against MCAO induced C57BL/6J mouse cerebral ischemia model assessed as reduction in nuclear leakage. The data set is classed as functional, organism-based.
In data set [15] the test system is Mus musculus. As to the kind of experiment: Downregulation of abnormal ion channel activation related genes expression in MCAO induced C57BL/6J mouse at 100 umol/kg measured after 24 hrs by GSEA. The format is functional. The conditions noted are these: dose 100.0 µmol/kg.
The species named for data set [16] is Mus musculus. The experiment in a line: Neuroprotective activity against MCAO induced C57BL/6J mouse cerebral ischemia model assessed as cleaved caspase-3 expression by immunofluorescence assay. The format is functional, organism-based.
The subject of data set [17] is Mus musculus. The experiment in a line: Downregulation of oxidative stress related genes expression in MCAO induced C57BL/6J mouse at 100 umol/kg measured after 24 hrs by GSEA. The data set is classed as functional, organism-based. The settings on record: dose 100.0 µmol/kg.
A further data set concerns PC12. The experiment in a line: Neuroprotective activity against ischemia/hypoxia induced cell injury in […] PC12 cells assessed as increase in cell viability at 10 to 20 uM by MTT assay. The settings on record: dose 10-20 µM. The format is functional, cell-based. A general note: Formazan colour is commonly taken as a measure of viable cells.
The species entered for data set [18] is Mus musculus. The experiment in a line: Neuroprotective activity against MCAO induced C57BL/6J mouse cerebral ischemia model assessed as appearance of high density nissl bodies in thalamic region. The format is functional, organism-based.
Data set [19] concerns Mus musculus. As to the kind of experiment: Induction of iron-sulfur cluster related genes transcriptional level in MCAO induced C57BL/6J mouse at 100 umol/kg measured after 24 hrs by GSEA. The data set is classed as functional, organism-based. The conditions noted are these: dose 100.0 µmol/kg.
The species named for data set [20] is Mus musculus. The experiment in a line: Neuroprotective activity against MCAO induced C57BL/6J mouse cerebral ischemia model assessed as NeuN expression by immunofluorescence assay. The data set is classed as functional, organism-based.
The species named for data set [21] is Mus musculus. As to the kind of experiment: Neuroprotective activity against MCAO induced C57BL/6J mouse cerebral ischemia model assessed as upregulation of genes related to neuroprotection by GSEA. The format is functional, organism-based.
For data set [22], the species on record is Mus musculus. As to the kind of experiment: Neuroprotective activity against MCAO induced C57BL/6J mouse cerebral ischemia model assessed as appearance of high density nissl bodies in hippocampal region. The data set is classed as functional, organism-based.
Data set [23] can be described thus: Drug metabolism in Sprague-Dawley rat assessed as 3-butylisobenzofuran-1(3H)-one level at 80 umol/kg, iv measured after 1 min by LC-MS/MS analysis. The data set is classed as ADME, organism-based. The settings on record: in vivo, dose 80 µmol/kg.

As usually defined, the viability is a read-out of living cells in per cent, often relative to untreated cells. For the compound `CCCCC(OC(C)=O)c1ccccc1C(=O)O` (stereo not given), the Activity in [1] is listed as 9.4 nmol/mg; with Mus musculus [2], 20.6%. The same compound registered a viability at 10 µM in “cells” of 86.4%.
In general, half-life refers to the time in which the quantity being followed falls by half. Take `CCCCC(OC(=O)CC(C)C)c1ccccc1C(=O)[S-].[Na+]` (stereo not given): at Liver carboxylesterase [3], the half-life at 500 µM is 6.42 h. At Liver carboxylesterase [4], the Drug metabolism stood at 31 µM.
Turning to `CCCCC(OC(=O)CC)c1ccccc1C(=O)SSCC(NC(C)=O)C(=O)[O-].[Na+]` (stereo not given), the half-life at 500 µM at Liver carboxylesterase [3] came to 0.333 h.
As for `CCCCC(OC(C)=O)c1ccccc1C(=O)SSCC(NC(C)=O)C(=O)O` (stereo not given), the Activity result in data set [5] was “Non-Toxic”; in data set [1], 9.9 nmol/mg; with Mus musculus [2], 20.6%. The concentration at 1 min in [6] is 151 µg/mL. Besides, the values for the Drug metabolism in [7], in data set [8] and in data set [9] were 44.4 µg/mL, 34.4 µg/mL and 105.9 µg/mL, respectively. Besides, the half-life at 500 µM at Liver carboxylesterase [3] stood at 2.98 h. For the same compound, the viability at 10 µM in “cells” stood at 86.2%. Also, the outcome with Mus musculus [10] was inactive.
In the case of `CCCCC(OC(=O)CC(C)C)c1ccccc1C(=O)SSCC(NC(C)=O)C(=O)[O-].[Na+]` (stereo not given), the values for the Drug metabolism in data set [7] and in data set [11] were 41 µg/mL and 201.1 µg/mL, respectively. Moreover, the half-life at 500 µM at Liver carboxylesterase [3] came to 0.22 h. The Drug uptake result in [12] (iv, 1 min, dose 80 µmol/kg) is reported as “Not Active”.
Take `CCCCC(OC(=O)C(C)C)c1ccccc1C(=O)SSCC(NC(C)=O)C(=O)[O-].[Na+]` (stereo not given): the half-life at 500 µM at Liver carboxylesterase [3] came to 0.225 h.
Take `CCCCC(OC(C)=O)c1ccccc1C(=O)[S-].[Na+]` (stereo not given): the result in the data set listed under Mus musculus [13], in the data set filed under Mus musculus [14], in the data set with Mus musculus [15], in the data set filed under Mus musculus [16], with Mus musculus [17] and in the data set on PC12 was Active. For the same compound, the outcome in the data set filed under Mus musculus [18], in the data set on Mus musculus [19], in the data set listed under Mus musculus [20], with Mus musculus [10], in the data set filed under Mus musculus [21] and in the data set listed under Mus musculus [22] was Active. For the same compound, the Activity result in data set [5] is listed as “Non-Toxic”; in data set [1], 6.3 nmol/mg; with Mus musculus [2] it was 13.8%. The concentration at 1 min in [6] came out at 216 µg/mL. The Drug metabolism in [7] amounted to 23.6 µg/mL; in [8], 35.5 µg/mL; at Liver carboxylesterase [4], 2.8 µM. Also, the half-life at 500 µM on Liver carboxylesterase [3] was 23.3 h. Further, the viability at 10 µM in “cells” turned out to be 92.5%.
For `CCCCC(OC(=O)C(C)C)c1ccccc1C(=O)[S-].[Na+]` (stereo not given), the half-life at 500 µM on Liver carboxylesterase [3] was 15 h.
On to `CCCCC1OC(=S)c2ccccc21` (stereo not given), for which, in data set [23], the Drug metabolism was determined as 1.2 µg/mL. Besides, the concentration at 1 min in data set [12] (Sprague-Dawley, 80 umol/kg, read-out: Drug uptake) is 7.5 µg/mL.
